This passage reports Kd results from ChEMBL document CHEMBL3991601, “The target landscape of clinical kinase drugs” (Science, 2017).

Experiment [1] deals with Cyclin-dependent kinase 13 (Homo sapiens, UniProt Q14004).
The target of experiment [2] is Eukaryotic translation initiation factor 2-alpha kinase 1 (Homo sapiens, UniProt Q9BQI3).
The next experiment concerns the target T1, Ephrin type-B receptor 2 (Homo sapiens, UniProt P29323).
T1 sequence (P29323 whole entry): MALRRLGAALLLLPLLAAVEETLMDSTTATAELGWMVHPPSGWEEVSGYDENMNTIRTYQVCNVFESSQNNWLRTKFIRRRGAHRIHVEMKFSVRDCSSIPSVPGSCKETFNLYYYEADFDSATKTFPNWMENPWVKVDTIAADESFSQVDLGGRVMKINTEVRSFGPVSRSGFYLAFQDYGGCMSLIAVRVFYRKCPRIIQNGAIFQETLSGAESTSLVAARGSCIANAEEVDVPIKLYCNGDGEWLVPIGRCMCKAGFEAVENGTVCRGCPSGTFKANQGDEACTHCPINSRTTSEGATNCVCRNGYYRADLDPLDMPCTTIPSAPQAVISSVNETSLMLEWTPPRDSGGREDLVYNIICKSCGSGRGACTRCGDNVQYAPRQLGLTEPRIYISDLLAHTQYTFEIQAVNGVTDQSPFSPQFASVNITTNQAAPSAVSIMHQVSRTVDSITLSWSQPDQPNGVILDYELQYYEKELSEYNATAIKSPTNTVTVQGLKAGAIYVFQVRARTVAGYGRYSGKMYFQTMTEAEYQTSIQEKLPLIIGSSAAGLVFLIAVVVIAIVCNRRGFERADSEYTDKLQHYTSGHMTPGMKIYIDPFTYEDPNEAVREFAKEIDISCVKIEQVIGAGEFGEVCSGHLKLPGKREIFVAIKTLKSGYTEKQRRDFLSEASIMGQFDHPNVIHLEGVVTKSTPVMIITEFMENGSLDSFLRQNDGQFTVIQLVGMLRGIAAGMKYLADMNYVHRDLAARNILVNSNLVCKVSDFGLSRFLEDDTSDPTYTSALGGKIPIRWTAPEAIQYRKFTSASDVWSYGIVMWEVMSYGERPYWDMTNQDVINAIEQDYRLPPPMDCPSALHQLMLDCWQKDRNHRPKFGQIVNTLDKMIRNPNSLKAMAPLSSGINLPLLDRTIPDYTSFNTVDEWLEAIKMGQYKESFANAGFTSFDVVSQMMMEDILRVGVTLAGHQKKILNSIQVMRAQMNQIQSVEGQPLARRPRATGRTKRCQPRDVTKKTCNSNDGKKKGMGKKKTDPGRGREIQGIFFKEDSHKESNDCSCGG

In experiment [3] the target is T2, Ribosyldihydronicotinamide dehydrogenase [quinone] (Homo sapiens, UniProt P16083).
T2 sequence (P16083 whole entry): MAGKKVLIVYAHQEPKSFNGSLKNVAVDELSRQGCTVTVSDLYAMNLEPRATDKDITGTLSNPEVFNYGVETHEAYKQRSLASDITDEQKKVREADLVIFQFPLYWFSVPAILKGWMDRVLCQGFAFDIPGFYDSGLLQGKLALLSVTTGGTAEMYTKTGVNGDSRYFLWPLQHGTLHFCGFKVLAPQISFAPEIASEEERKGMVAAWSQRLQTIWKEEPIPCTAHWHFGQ

The target of experiment [4] is T3, Bifunctional phosphoribosylaminoimidazole carboxylase/phosphoribosylaminoimidazole succinocarboxamide synthetase (Homo sapiens, UniProt P22234).
T3 sequence (P22234 whole entry): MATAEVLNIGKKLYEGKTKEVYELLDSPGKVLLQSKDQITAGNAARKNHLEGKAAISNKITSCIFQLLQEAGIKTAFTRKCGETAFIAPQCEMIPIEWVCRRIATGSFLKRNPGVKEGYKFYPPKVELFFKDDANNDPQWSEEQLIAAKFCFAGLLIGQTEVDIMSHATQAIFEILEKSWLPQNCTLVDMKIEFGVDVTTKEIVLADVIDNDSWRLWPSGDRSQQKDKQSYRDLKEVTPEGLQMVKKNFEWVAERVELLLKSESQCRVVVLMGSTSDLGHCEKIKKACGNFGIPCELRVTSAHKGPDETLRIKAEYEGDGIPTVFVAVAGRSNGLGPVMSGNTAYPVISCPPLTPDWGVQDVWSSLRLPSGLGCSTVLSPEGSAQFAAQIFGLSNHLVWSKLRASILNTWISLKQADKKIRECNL

In experiment [5] the target is 26S proteasome regulatory subunit 6B (Homo sapiens, UniProt P43686).
26S proteasome regulatory subunit 6B, sequence (P43686 whole entry): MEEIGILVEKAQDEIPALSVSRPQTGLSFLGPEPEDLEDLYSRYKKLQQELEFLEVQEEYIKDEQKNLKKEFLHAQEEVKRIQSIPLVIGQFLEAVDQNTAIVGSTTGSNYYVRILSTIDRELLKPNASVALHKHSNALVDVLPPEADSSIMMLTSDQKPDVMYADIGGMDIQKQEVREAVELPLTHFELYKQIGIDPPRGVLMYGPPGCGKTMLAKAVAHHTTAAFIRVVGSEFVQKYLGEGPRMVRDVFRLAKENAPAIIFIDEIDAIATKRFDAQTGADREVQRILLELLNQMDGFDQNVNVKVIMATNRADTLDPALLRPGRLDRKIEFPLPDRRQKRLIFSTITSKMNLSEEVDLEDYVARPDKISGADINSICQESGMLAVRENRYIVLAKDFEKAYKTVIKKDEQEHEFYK
Experiment [6] concerns the target Tyrosine-protein kinase SYK (Homo sapiens, UniProt P43405).
Experiment [7] concerns the target T4, Serine/threonine-protein kinase D3 (Homo sapiens, UniProt O94806).
T4 sequence (O94806 whole entry): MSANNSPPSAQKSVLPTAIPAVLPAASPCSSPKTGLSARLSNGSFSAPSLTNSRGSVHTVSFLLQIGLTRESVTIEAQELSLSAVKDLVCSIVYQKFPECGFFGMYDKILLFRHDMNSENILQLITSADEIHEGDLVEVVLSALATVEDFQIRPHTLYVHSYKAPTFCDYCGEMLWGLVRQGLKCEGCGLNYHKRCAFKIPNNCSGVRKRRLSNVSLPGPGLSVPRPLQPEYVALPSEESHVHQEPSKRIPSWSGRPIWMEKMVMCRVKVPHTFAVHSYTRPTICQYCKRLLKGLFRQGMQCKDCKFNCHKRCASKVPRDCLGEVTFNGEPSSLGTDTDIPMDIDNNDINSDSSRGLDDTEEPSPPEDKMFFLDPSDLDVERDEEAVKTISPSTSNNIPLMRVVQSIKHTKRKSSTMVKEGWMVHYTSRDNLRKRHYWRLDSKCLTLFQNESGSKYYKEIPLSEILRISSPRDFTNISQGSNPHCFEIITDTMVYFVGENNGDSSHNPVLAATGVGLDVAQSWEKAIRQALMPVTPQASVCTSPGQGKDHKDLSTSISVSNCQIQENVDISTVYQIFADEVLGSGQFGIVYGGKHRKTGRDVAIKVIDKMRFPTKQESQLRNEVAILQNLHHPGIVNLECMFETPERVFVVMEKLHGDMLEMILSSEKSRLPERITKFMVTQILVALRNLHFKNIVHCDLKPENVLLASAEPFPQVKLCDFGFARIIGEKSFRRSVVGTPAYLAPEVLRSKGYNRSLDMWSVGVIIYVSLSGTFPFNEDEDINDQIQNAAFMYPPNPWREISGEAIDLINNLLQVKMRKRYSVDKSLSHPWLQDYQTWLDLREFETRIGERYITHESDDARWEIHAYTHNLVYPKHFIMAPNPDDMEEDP

Calls of active or inactive are those of the source. For most assays here, no stated cut-off is given here; in the data, actives have a measured Kd and inactives only a lower limit. A value given as a limit tells only on which side of the number the result lay.

Eukaryotic translation initiation factor 2-alpha kinase 1, sequence (Q9BQI3 whole entry): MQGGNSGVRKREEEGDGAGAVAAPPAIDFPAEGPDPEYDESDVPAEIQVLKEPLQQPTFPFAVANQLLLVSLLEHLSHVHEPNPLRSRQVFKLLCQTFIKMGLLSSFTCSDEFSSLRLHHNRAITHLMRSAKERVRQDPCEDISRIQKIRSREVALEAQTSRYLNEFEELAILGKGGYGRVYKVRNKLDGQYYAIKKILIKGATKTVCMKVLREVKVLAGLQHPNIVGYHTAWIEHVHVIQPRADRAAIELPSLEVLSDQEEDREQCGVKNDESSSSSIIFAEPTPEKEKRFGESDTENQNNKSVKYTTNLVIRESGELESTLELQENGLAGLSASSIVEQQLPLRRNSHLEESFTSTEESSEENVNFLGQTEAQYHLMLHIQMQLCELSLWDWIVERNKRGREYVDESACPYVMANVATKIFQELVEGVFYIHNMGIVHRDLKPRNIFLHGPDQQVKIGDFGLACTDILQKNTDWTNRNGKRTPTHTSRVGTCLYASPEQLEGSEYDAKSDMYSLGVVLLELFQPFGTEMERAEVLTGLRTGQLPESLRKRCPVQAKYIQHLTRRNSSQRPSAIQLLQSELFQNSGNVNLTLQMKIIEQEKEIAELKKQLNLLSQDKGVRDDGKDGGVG
Cyclin-dependent kinase 13, sequence (Q14004 whole entry): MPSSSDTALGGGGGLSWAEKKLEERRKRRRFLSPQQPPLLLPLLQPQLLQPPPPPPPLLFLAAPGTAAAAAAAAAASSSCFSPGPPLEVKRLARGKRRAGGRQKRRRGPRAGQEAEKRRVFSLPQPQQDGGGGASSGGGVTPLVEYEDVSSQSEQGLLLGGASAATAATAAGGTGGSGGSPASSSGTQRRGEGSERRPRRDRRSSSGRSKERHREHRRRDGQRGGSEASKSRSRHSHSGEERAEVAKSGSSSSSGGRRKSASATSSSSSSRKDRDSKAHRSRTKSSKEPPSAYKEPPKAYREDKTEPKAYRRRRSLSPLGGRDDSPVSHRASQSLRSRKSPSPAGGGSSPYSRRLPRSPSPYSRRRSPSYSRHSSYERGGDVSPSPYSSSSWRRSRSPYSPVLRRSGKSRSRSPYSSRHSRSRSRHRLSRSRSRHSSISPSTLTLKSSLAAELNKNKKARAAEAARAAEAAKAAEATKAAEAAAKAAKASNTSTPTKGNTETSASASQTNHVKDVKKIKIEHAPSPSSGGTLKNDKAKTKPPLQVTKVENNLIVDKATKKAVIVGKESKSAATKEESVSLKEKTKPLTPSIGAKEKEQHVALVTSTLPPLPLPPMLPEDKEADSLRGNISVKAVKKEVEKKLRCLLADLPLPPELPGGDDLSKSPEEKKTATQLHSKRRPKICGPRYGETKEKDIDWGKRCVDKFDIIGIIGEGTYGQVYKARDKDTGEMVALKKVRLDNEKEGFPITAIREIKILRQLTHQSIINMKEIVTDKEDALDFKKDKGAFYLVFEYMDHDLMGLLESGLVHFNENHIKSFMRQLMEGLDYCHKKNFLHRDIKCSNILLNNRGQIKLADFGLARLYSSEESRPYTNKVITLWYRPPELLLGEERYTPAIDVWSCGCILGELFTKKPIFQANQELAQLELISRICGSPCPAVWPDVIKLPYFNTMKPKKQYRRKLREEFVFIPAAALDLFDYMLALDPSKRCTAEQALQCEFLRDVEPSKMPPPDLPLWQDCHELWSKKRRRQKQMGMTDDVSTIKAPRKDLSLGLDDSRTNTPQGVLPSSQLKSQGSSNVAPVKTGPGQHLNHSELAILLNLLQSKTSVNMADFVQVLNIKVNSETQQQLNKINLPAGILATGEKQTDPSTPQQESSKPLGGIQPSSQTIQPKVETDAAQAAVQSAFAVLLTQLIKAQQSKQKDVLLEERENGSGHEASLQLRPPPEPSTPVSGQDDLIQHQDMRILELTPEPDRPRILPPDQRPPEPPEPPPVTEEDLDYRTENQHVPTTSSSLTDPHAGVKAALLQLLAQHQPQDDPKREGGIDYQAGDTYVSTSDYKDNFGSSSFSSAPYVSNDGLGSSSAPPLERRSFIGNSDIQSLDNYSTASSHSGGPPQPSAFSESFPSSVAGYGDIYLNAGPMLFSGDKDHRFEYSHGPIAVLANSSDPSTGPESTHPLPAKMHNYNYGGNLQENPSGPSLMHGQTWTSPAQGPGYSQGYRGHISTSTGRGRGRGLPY

The term Kd denotes the concentration at which binding is half-saturated. As to `CCN(CCCOc1ccc2c(Nc3cc(CC(=O)Nc4cccc(F)c4)n[nH]3)ncnc2c1)CCOP(=O)(O)O` [BARASERTIB], the Kd (in experiment [1]; in experiment [2]; on Ephrin type-B receptor 2; in experiment [3]; in experiment [4]; in experiment [5]) was > 30 µM (inactive) each time. Further, the Kd in experiment [6] is > 30 µM (inactive).
Regarding `C=CCn1c(=O)c2cnc(Nc3ccc(N4CCN(C)CC4)cc3)nc2n1-c1cccc(C(C)(C)O)n1` [ADAVOSERTIB], the Kd (in experiment [1]; in experiment [2]; at Ephrin type-B receptor 2; in experiment [3]; in experiment [4]; in experiment [5]) was > 30 µM (inactive) in each case.
In the case of `COc1cc2c(N3CCN(C(=O)Nc4ccc(OC(C)C)cc4)CC3)ncnc2cc1OCCCN1CCCCC1` [TANDUTINIB], the Kd in experiment [3], in experiment [4] and in experiment [5] was > 30 µM (inactive) throughout.
With `COc1cc2c(Oc3ccc4[nH]c(C)cc4c3F)ncnc2cc1OCCCN1CCCC1` [CEDIRANIB], the Kd in experiment [3], in experiment [4] and in experiment [5] was > 30 µM (inactive) in each case.
As to `Cn1cnc2c(F)c(Nc3ccc(Br)cc3Cl)c(C(=O)NOCCO)cc21` [SELUMETINIB], the Kd in experiment [3], in experiment [4] and in experiment [5] was > 30 µM (inactive) in each case.
Turning to `CC1(COc2ccc3c(c2)ncn3-c2ccc3cccc(N4CCC(N)CC4)c3n2)COC1` [CRENOLANIB], the Kd is > 30 µM (inactive) in experiment [1]; > 30 µM (inactive) in experiment [2]; > 30 µM (inactive) on Ephrin type-B receptor 2; > 30 µM (inactive) in experiment [4]; 14.8 µM (active) in experiment [7]; > 30 µM (inactive) in experiment [5]. Moreover, the Kd in experiment [6] was > 30 µM (inactive).
Consider `CN(C)C/C=C/C(=O)Nc1cc2c(Nc3ccc(F)c(Cl)c3)ncnc2cc1O[C@H]1CCOC1` [AFATINIB], for which the Kd in experiment [3], in experiment [4] and in experiment [5] was > 30 µM (inactive) throughout.
As to `CN(c1ncccc1CNc1nc(Nc2ccc3c(c2)CC(=O)N3)ncc1C(F)(F)F)S(C)(=O)=O` [PF-00562271], the Kd in experiment [1] is 4.5 µM (active); in experiment [2], > 30 µM (inactive); at Ephrin type-B receptor 2, > 30 µM (inactive); in experiment [3], > 30 µM (inactive); in experiment [4] it was > 30 µM (inactive); in experiment [5], > 30 µM (inactive).
Take `CC(C)(O)CC(=O)NCCn1ccc2ncnc(Nc3ccc(Oc4cccc(C(F)(F)F)c4)c(Cl)c3)c21` [TAK-285]: the Kd (in experiment [1]; in experiment [2]; at Ephrin type-B receptor 2; in experiment [3]; in experiment [4]; in experiment [5]) was > 30 µM (inactive) in each case. In addition, the Kd in experiment [6] was > 30 µM (inactive).
Regarding `CC1(C)CNc2cc(NC(=O)c3cccnc3NCc3ccncc3)ccc21` [MOTESANIB], the Kd in experiment [3], in experiment [4] and in experiment [5] was > 30 µM (inactive) in each case.
On to `C[C@@]1(C(=O)Nc2ccc(F)nc2)CCCN1c1nc(Nc2cc(C3CC3)n[nH]2)c2cccn2n1` [BMS-754807], for which the Kd in experiment [3], in experiment [4] and in experiment [5] was > 30 µM (inactive) each time.
With `COc1cc(Nc2ncc(F)c(Nc3ccc4c(n3)N(COP(=O)(O)O)C(=O)C(C)(C)O4)n2)cc(OC)c1OC` [FOSTAMATINIB], the Kd (in experiment [1]; in experiment [2]; on Ephrin type-B receptor 2; in experiment [3]; in experiment [4]; in experiment [7]) was > 30 µM (inactive) in each case. Moreover, the Kd in experiment [5] was > 30 µM (inactive).
As for `O=S(=O)(c1cccc2cnccc12)N1CCCNCC1` [FASUDIL], the Kd in experiment [2] is > 30 µM (inactive); on Ephrin type-B receptor 2, > 30 µM (inactive); in experiment [3], 2.45 µM (active); in experiment [4], > 30 µM (inactive); in experiment [5], > 30 µM (inactive); in experiment [6], > 30 µM (inactive).
Take `N#CCNC(=O)c1ccc(-c2ccnc(Nc3ccc(N4CCOCC4)cc3)n2)cc1` [MOMELOTINIB]: the Kd (in experiment [1]; on Ephrin type-B receptor 2; in experiment [3]; in experiment [4]; in experiment [5]; in experiment [6]) was > 30 µM (inactive) each time.
For `CCc1nc(C(N)=O)c(Nc2ccc(N3CCC(N4CCN(C)CC4)CC3)c(OC)c2)nc1NC1CCOCC1` [GILTERITINIB], the Kd in experiment [1] is > 30 µM (inactive); at Ephrin type-B receptor 2 it was > 30 µM (inactive); in experiment [3] it was 1.7 µM (active); in experiment [4] it was 5.48 µM; in experiment [7] it was > 30 µM (inactive); in experiment [5] it was > 30 µM (inactive). Also, in experiment [6], the equilibrium dissociation constant (Kd) is 4.04 µM (active).
With `C[C@]1(O)C[C@@H](c2nc(-c3ccc4ccc(-c5ccccc5)nc4c3)c3c(N)nccn32)C1` [LINSITINIB], the Kd (in experiment [1]; in experiment [2]; on Ephrin type-B receptor 2; in experiment [3]; in experiment [4]; in experiment [5]) was > 30 µM (inactive) each time.
For the compound `Cn1c(=O)n(-c2ccc(C(C)(C)C#N)cc2)c2c3cc(-c4cnc5ccccc5c4)ccc3ncc21` [DACTOLISIB], the Kd (in experiment [1]; in experiment [2]; at Ephrin type-B receptor 2; in experiment [3]; in experiment [4]; in experiment [5]) was > 30 µM (inactive) each time. Besides, the Kd in experiment [6] was > 30 µM (inactive).
